In ChEMBL document CHEMBL1154267, “Imidazo[1,5-a][1,2,4]-triazolo[1,5-d][1,4]benzodiazepines as potent and highly selective GABAA alpha5 inverse agonists with potential for the treatment of cognitive dysfunction” (Bioorg Med Chem Lett, 2009):
≈ marks a conversion by molar mass, not a printed value. Calls of active or inactive are those of the source. The calls are words filed in the database; no cut-off is given here.

Legend:
[1] = biological target: T1, GABA-A receptor; alpha-5/beta-3/gamma-2 (Homo sapiens, UniProt P18507+P28472+P31644); experiment: Displacement of [3H]flumazenil from GABAA alpha-5-beta-3-gamma-2 receptor; type: protein-complex assay
T1 sequence (P18507 whole entry): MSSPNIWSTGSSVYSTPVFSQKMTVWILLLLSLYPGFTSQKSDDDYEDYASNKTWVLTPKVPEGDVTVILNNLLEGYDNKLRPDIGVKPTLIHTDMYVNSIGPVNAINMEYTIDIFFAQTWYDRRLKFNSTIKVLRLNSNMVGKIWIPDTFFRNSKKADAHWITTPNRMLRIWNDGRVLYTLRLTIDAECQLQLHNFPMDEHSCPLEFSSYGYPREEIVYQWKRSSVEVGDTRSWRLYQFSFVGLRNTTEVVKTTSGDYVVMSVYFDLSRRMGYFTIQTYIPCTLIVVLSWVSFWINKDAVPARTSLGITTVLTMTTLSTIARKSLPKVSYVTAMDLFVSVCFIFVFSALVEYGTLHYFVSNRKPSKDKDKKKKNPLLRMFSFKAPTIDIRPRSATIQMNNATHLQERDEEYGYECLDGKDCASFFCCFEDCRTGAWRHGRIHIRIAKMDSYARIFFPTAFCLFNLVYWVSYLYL
T1 sequence (P28472 whole entry): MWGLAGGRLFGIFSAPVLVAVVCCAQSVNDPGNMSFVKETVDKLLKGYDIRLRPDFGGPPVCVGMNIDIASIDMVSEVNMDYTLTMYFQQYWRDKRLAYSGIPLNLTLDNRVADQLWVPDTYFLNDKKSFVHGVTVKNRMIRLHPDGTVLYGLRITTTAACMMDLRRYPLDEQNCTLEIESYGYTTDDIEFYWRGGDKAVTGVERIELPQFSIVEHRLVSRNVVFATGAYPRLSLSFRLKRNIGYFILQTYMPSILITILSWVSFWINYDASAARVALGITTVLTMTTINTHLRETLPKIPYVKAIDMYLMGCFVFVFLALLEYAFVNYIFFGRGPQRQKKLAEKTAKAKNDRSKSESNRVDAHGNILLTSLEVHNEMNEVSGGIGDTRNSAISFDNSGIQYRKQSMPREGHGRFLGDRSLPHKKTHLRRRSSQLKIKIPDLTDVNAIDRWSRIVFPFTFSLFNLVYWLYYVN
T1 sequence (P31644 whole entry): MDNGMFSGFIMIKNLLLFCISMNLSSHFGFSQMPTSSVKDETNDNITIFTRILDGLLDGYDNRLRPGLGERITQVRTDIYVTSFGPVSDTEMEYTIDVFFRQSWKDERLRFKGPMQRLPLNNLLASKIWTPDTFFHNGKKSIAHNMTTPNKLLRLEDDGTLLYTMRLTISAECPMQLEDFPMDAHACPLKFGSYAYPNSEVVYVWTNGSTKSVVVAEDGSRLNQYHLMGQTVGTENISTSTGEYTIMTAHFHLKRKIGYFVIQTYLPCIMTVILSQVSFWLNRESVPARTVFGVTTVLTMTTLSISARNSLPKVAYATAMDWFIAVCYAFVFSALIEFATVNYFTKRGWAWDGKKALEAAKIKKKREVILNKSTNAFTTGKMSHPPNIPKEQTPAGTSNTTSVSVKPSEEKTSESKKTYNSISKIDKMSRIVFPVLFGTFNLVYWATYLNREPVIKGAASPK

[2] = biological target: T2, GABA-A receptor; alpha-1/beta-3/gamma-2 (Homo sapiens, UniProt P14867+P18507+P28472); experiment: Displacement of [3H]flumazenil from GABAA alpha-1-beta-3-gamma-2 receptor; type: protein-complex assay
T2 sequence (P14867 whole entry): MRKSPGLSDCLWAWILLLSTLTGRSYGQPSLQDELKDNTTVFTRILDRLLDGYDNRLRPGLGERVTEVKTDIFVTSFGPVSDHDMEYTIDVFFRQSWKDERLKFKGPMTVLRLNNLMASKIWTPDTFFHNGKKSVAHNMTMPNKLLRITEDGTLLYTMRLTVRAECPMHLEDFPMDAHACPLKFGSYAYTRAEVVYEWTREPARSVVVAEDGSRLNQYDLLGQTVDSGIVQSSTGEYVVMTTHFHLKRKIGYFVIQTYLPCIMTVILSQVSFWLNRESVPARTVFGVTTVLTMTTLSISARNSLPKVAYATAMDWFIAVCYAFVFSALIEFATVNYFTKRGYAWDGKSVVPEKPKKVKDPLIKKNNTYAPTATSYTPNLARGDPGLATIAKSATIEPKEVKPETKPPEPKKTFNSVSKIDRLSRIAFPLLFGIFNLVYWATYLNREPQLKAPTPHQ
T2 sequence (P18507 whole entry): T1 sequence (P18507 whole entry)
T2 sequence (P28472 whole entry): T1 sequence (P28472 whole entry)

[3] = biological target: T3, GABA-A receptor; alpha-2/beta-3/gamma-2 (Homo sapiens, UniProt P18507+P28472+P47869); experiment: Displacement of [3H]flumazenil from GABAA alpha-2-beta-3-gamma-2 receptor; type: protein-complex assay
T3 sequence (P18507 whole entry): T1 sequence (P18507 whole entry)
T3 sequence (P28472 whole entry): T1 sequence (P28472 whole entry)
T3 sequence (P47869 whole entry): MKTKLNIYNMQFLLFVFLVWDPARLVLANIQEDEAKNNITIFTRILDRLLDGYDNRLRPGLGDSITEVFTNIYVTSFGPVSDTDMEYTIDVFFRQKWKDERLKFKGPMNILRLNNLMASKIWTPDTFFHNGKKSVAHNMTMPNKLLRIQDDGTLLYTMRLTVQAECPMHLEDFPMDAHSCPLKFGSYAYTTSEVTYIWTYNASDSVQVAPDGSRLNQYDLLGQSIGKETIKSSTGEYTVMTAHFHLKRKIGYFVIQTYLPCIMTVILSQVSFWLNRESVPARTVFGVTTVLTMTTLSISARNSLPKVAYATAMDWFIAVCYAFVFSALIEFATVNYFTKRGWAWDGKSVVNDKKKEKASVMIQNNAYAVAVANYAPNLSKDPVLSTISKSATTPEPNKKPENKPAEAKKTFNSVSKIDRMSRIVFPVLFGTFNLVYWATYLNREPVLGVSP

[4] = biological target: T4, GABA-A receptor; alpha-3/beta-3/gamma-2 (Homo sapiens, UniProt P18507+P28472+P34903); experiment: Displacement of [3H]flumazenil from GABAA alpha-3-beta-3-gamma-2 receptor; type: protein-complex assay
T4 sequence (P18507 whole entry): T1 sequence (P18507 whole entry)
T4 sequence (P28472 whole entry): T1 sequence (P28472 whole entry)
T4 sequence (P34903 whole entry): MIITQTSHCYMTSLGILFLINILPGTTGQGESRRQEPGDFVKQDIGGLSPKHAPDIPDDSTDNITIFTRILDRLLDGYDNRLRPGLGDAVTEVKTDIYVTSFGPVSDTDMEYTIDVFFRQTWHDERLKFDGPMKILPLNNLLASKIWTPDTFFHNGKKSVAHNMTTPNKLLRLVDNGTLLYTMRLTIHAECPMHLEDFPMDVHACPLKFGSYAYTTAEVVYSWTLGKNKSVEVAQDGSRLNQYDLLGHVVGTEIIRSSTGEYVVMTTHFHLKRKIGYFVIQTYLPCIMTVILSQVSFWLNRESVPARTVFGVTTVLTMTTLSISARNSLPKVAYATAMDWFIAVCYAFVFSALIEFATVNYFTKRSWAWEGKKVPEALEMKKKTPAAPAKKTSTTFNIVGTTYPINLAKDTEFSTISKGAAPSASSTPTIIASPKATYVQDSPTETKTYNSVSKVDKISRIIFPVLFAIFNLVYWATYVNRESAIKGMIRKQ

[5] = biological target: GABA-A receptor; alpha-5/beta-3/gamma-2 (Homo sapiens) (UniProt P18507+P28472+P31644); experiment: Inverse agonist activity at GABAA alpha-5-beta-3-gamma-2 receptor assessed as modulation of GABA-induced chloride ion flux by electrophysiology assay relative to GABA; type: functional
[6] = Selectivity ratio of Ki for GABAA alpha-1-beta-3-gamma-2 receptor to Ki for GABAA alpha-5-beta-3-gamma-2 receptor
[7] = Selectivity ratio of Ki for GABAA alpha-2-beta-3-gamma-2 receptor to Ki for GABAA alpha-5-beta-3-gamma-2 receptor
[8] = Selectivity ratio of Ki for GABAA alpha-3-beta-3-gamma-2 receptor to Ki for GABAA alpha-5-beta-3-gamma-2 receptor
[9] = Solubility of the compound; type: physicochemical
[10] = Lipophilicity, log D at pH 7.4; type: physicochemical; conditions: buffer
[11] = Permeability by PAMPA; type: ADME; conditions: read-out: permeability
[12] = Half life in rat; type: ADME, organism-based; conditions: in vivo
[13] = Clearance in rat; type: ADME, organism-based; conditions: in vivo
[14] = Volume of distribution at steady state in rat; type: ADME, organism-based; conditions: in vivo, read-out: Vdss
[15] = Oral bioavailability in rat; type: ADME, organism-based; conditions: in vivo
[16] = Ratio of drug level in brain to plasma in rat; type: ADME, organism-based; conditions: brain and plasma
[17] = biological target: GABA-A receptor; alpha-1/beta-3/gamma-2 (Homo sapiens) (UniProt P14867+P18507+P28472); experiment: Inverse agonist activity at GABAA alpha-1-beta-3-gamma-2 receptor assessed as modulation of GABA-induced chloride ion flux by electrophysiology assay relative to GABA; type: functional
[18] = tested on: Liver microsomes; experiment: Clearance in human liver microsomes; type: ADME, Microsome
[19] = tested on: Rattus norvegicus; experiment: Behavioral effect in Lister hooded rat assessed as reversal of Scopolamine-induced impairment of working memory at 1 to 3 mg/kg, ip administered 30 mins before Scopolamine challenge by delayed match to position test; type: functional, organism-based
[20] = tested on: Rattus norvegicus; experiment: Behavioral effect in Lister hooded rat assessed as inhibition of scopolamine-induced impairment of working memory at 1 to 3 mg/kg, po after 30 mins by delayed match to position test; type: functional, organism-based
[21] = biological target: GABA-A receptor; alpha-2/beta-3/gamma-2 (Homo sapiens) (UniProt P18507+P28472+P47869); experiment: Inverse agonist activity at GABAA alpha-2-beta-3-gamma-2 receptor assessed as modulation of GABA-induced chloride ion flux by electrophysiology assay relative to GABA; type: functional
[22] = biological target: GABA-A receptor; alpha-3/beta-3/gamma-2 (Homo sapiens) (UniProt P18507+P28472+P34903); experiment: Inverse agonist activity at GABAA alpha-3-beta-3-gamma-2 receptor assessed as modulation of GABA-induced chloride ion flux by electrophysiology assay relative to GABA; type: functional
[23] = tested on: Rattus norvegicus; experiment: Behavioral effect in Lister hooded rat assessed as reversal of Scopolamine-induced impairment of working memory at 1 mg/kg, ip administered 30 mins before Scopolamine challenge by delayed match to position test; type: functional, organism-based; set-up: dose 1 mg/kg

| SMILES | Ki [1] [nM] | Ki [2] [nM] | Ki [3] [nM] | Ki [4] [nM] | Efficacy [5] [%] | Ratio Ki [6] | Ratio Ki [7] | Ratio Ki [8] | further results |
| --- | --- | --- | --- | --- | --- | --- | --- | --- | --- |
| Cc1cc(Cc2nc3n(n2)Cc2c(C)ncn2-c2ccc(Br)cc2-3)on1 | 0.6 | 188 | 105 | 73 | -27 | 314 | 174 | 122 | solubility [9]: 7 µg/mL (≈ 17 µM); logD [10]: 2.6; Papp [11]: 3.3 ×10⁻⁶ cm/s; half-life [12]: 1.4 h; clearance [13]: 39 mL/min/kg; Vd [14]: 4.6 L/kg; bioavailability [15]: 34%; Kp [16]: 0.2 |
| Cc1ncn2c1Cn1ncnc1-c1cc(Br)ccc1-2 | 6 | 136 | 186 | 132 | -42 |  |  |  | Efficacy [17]: -16% |
| Cc1cc(Cc2nc3n(n2)Cc2c(C)ncn2-c2ccccc2-3)on1 | 1.6 |  |  |  |  | 57 | 20 | 16 |  |
| Cc1ncn2c1Cn1nc(C(C)(C)C)nc1-c1cc(Br)ccc1-2 | 146 | 3160 | 1070 | 1210 |  |  |  |  |  |
| COc1ccc2c(c1)-c1nc(Cc3cc(C)no3)nn1Cc1c(C)ncn1-2 | 2.2 |  |  |  | -13 | 307 | 193 | 222 |  |
| Cc1nc2n(n1)Cc1c(C)ncn1-c1ccc(Br)cc1-2 | 20 | 1420 | 3160 | 1620 | -17 |  |  |  |  |
| Cc1cc(Cc2nc3n(n2)Cc2c(C)ncn2-c2ccc(OC(F)(F)F)cc2-3)on1 | 11 |  |  |  | -20 | 68 | 83 | 111 |  |
| COCc1nc2n(n1)Cc1c(C)ncn1-c1ccc(Br)cc1-2 | 13 | 619 | 693 | 592 | -3 |  |  |  |  |
| Cc1ncn2c1Cn1nc(CN3CCCC3=O)nc1-c1cc(Br)ccc1-2 | 7 | 624 | 669 | 515 | -34 |  |  |  | solubility [9]: 550 µg/mL (≈ 1330 µM); logD [10]: 1.5; Papp [11]: 1.5 ×10⁻⁶ cm/s; CL [18]: 3000 µL/min/mg; half-life [12]: 0.8 h; clearance [13]: 30 mL/min/kg; Vd [14]: 1.3 L/kg; bioavailability [15]: 32%; Kp [16]: 0.09; Activity [19]: Dose-dependent effect; Activity [20]: inactive |
| Cc1ccc2c(c1)-c1nc(Cc3cc(C)no3)nn1Cc1c(C)ncn1-2 | 0.8 |  |  |  | -16 | 620 | 332 | 360 |  |
| Cc1ncn2c1Cn1nc(CC3CC3)nc1-c1cc(Br)ccc1-2 | 5 | 538 | 407 | 407 | -12 | 2 | 2 | 2 |  |
| Cc1cc(-c2nnc3c4ccccc4c(OCc4ccccn4)nn23)no1 | 1.5 | 1.5 |  | 1.5 | -41 |  |  |  | Efficacy [17]: -9%; Efficacy [21]: 11%; Efficacy [22]: 10%; Activity [23]: Active |
| Cc1noc(Cc2nc3n(n2)Cc2c(C)ncn2-c2ccc(Br)cc2-3)n1 | 0.9 | 469 | 317 | 277 | -18 |  |  |  |  |
| Cc1cc(Cc2nc3n(n2)Cc2c(C)ncn2-c2ccc(O)cc2-3)on1 | 1.2 |  |  |  | -7 | 99 |  |  |  |
